Results on 50 molecules are retold here after US8592422B2, “Bicyclic triazole and pyrazole lactams as allosteric modulators of mGluR5 receptors” (Vanderbilt University, priority 2010, dated 2013).

The test addresses T1, human mGluR5a receptor (Homo sapiens, UniProt P41594).
T1 construct: cDNA subcloned into pcDNA3.1(-)
Briefly: Cell-based functional Ca2+ mobilization assay (FDSS), potentiation of glutamate EC20 response. Conditions: for pEC50 / EC50: HEK cells transfected with human mGluR5 (H10H or H12H), in presence of EC20 glutamate; for EC50: read-out: EC50; for Emax (%) / Emax: maximum % effect in concentration-response curve, as percent of response to maximally effective glutamate. The essentials:
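HEK293A cells stably expressing human mGluR5a (H10H or H12H clones), plated overnight in glutamate-glutamine-free medium, loaded with Ca2+-sensitive dye (e.g. Fluo-4) and read on FDSS.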

Where only a bound is given, the exact number is not on record here.

T1 sequence (P41594 21-1180 isoform P41594-2 limits assumed): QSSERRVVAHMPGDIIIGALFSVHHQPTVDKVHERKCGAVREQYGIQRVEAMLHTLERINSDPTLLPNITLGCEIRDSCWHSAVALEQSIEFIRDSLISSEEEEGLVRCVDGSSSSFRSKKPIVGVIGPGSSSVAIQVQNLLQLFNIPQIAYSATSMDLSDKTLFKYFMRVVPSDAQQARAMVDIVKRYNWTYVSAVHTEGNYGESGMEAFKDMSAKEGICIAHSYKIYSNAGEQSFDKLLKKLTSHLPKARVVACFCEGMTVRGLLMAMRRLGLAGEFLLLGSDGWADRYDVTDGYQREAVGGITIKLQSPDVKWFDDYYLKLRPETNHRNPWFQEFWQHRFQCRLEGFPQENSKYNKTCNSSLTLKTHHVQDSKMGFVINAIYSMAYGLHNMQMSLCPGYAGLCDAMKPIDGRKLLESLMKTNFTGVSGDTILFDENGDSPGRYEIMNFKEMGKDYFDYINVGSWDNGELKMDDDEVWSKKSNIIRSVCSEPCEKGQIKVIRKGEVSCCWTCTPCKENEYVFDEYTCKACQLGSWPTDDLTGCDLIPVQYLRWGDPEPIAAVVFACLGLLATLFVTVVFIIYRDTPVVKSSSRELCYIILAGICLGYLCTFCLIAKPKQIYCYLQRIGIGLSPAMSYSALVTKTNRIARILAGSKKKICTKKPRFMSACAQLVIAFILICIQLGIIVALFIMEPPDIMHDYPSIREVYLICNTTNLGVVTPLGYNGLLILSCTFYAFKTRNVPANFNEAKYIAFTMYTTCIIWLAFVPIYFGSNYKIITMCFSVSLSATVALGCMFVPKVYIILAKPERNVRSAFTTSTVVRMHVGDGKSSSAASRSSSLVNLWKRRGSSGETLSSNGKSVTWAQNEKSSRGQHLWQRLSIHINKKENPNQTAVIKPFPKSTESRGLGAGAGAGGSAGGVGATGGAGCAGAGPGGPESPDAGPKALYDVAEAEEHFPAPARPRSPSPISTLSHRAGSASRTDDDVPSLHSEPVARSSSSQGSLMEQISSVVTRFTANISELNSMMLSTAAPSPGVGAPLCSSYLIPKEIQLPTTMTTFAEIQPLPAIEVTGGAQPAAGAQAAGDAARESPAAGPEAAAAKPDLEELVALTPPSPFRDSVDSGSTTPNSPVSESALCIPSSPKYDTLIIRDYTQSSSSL

Broadly, the pEC50 is the negative decadic logarithm of the EC50, by convention in mol/L. The EC50 is the midpoint of the concentration-response curve. Turning to `N#Cc1cccc(OCc2cc3n(n2)CCN(c2ccc(F)cc2)C3=O)c1` [Example 169], the pEC50 is 6.51, the EC50 was determined as 309 nM and the “Emax (%)” value is recorded as 62%.
On to `O=C1c2cc(COc3cccnc3)nn2CCN1CC1CC1` [Example 170], for which the pEC50 is reported as less than 5.00, the EC50 was greater than 10000 nM and the “Emax (%)” value is 45%.
For the molecule `O=C1c2cc(COc3ccccn3)nn2CCN1c1ccc(F)cn1` [Example 172], the pEC50 amounted to 5.99, the EC50 was determined as 1020 nM and the “Emax (%)” value was determined as 64%.
The corresponding values for `Cc1cccc(OCc2cc3n(n2)CCN(c2ccc(F)cc2)C3=O)n1` [Example 173] are less than 5.00, greater than 10000 nM and 31%.
One may read the Emax as the size of the effect at its maximum, as opposed to the concentration needed. With `Cc1cc(OCc2cc3n(n2)CCN(c2ccc(F)cc2)C3=O)cc(C)n1` [Example 175], the 50% effective concentration (EC50) is greater than 30200 nM and the Emax amounted to 22%.
As to `O=C1c2cc(COc3ccncc3)nn2CCN1c1ccc(F)cn1` [Example 176], the pEC50 came out at 5.75, the 50% effective concentration (EC50) is 1780 nM and the “Emax (%)” value is 64%.
In the case of `Cc1cccc(OCc2cc3n(n2)CCN(c2ccc(F)cn2)C3=O)c1` [Example 177], the negative logarithm of the EC50 (pEC50) is reported as 6.42, the 50% effective concentration (EC50) is 380 nM and the “Emax (%)” value is 61%.
The corresponding values for `Cc1cc(OCc2cc3n(n2)CCN(c2ccc(F)cc2)C3=O)ncc1F` [Example 180] are 5.77, 1700 nM and 53%.
The like results for `Cc1nccc(OCc2cc3n(n2)CCN(c2ccc(F)cc2)C3=O)n1` [Example 182] were, in that order, 5.49, 3240 nM and 36%.
The corresponding values for `Cc1ccnc(OCc2cc3n(n2)CCN(c2ccc(F)cc2)C3=O)c1` [Example 184] are 6.45, 355 nM and 61%.
On to `Cc1ccnc(OCc2cc3n(n2)CCN(c2ccc(F)cc2)C3=O)n1` [Example 186], for which the negative-log EC50 (pEC50) was less than 4.52, the EC50 was greater than 30200 nM and the “Emax (%)” value is 30%.
In the case of `O=C1c2cc(COc3cccc(F)c3)nn2CCN1c1ccc(F)cc1` [Example 188], the pEC50 amounted to 6.83, the EC50 stood at 148 nM and the “Emax (%)” value is on record as 66%.
For the molecule `Cc1ccc(OCc2cc3n(n2)CCN(c2ccc(F)cc2)C3=O)cc1` [Example 192], the concentration giving a half-maximal response (EC50) came to 240 nM and the Emax worked out at 57%.
Take `Cc1cc(OCc2cc3n(n2)CCN(c2ccc(F)cc2)C3=O)ncn1` [Example 196]: the pEC50 is reported as less than 5.00, the EC50 is greater than 10000 nM and the “Emax (%)” value is 37%.
The corresponding values for `Cc1ccnc(OCc2cc3n(n2)CCN(c2ccc(F)cc2)C3=O)c1F` [Example 198] are 5.76, 1740 nM and 61%.
Take `O=C1c2cc(COc3ccncn3)nn2CCN1c1ccc(F)cc1` [Example 199]: the negative logarithm of the EC50 (pEC50) amounted to 5.43, the EC50 came to 3720 nM and the “Emax (%)” value came out at 60%.
With `O=C1c2cc(COc3ccnnc3)nn2CCN1c1ccc(F)cc1` [Example 201], the negative logarithm of the EC50 (pEC50) is less than 5.00, the half-maximal effective concentration (EC50) was greater than 10000 nM and the “Emax (%)” value was 46%.
Consider `Cc1cc(N2CCn3nc(COc4ccccn4)cc3C2=O)ccc1F` [Example 203], for which the negative-log EC50 (pEC50) was determined as 6.78, the EC50 worked out at 166 nM and the “Emax (%)” value turned out to be 66%.
The like results for `Cc1nc(N2CCn3nc(COc4ccccn4)cc3C2=O)ccc1F` [Example 205] were, in that order, 6.41, 389 nM and 55%.
Consider `CC(C)c1cccc(N2CCn3nc(COc4ccccn4)cc3C2=O)n1` [Example 207], for which the pEC50 is recorded as 6.36, the EC50 amounted to 437 nM and the “Emax (%)” value stood at 69%.
For `COc1ccc(F)c(N2CCn3nc(COc4ccccn4)cc3C2=O)n1` [Example 208], the negative-log EC50 (pEC50) was 6.46, the concentration giving a half-maximal response (EC50) worked out at 347 nM and the “Emax (%)” value stood at 69%.
Take `COc1nc(N2CCn3nc(COc4ccccn4)cc3C2=O)ncc1F` [Example 209]: the EC50 was found to be 525 nM and the Emax is 62%.
The like results for `COc1nccc(N2CCn3nc(COc4ccccn4)cc3C2=O)n1` [Example 210] were, in that order, 2140 nM and 50%.
The like results for `COc1cncc(N2CCn3nc(COc4ccccn4)cc3C2=O)n1` [Example 213] were, in that order, 660 nM and 56%.
In the case of `COc1ccccc1N1CCn2nc(COc3ccccn3)cc2C1=O` [Example 214], the negative logarithm of the EC50 (pEC50) is recorded as 5.97, the EC50 stood at 1100 nM and the “Emax (%)” value is 54%.
The like results for `Cc1cccc(N2CCn3nc(COc4ccccn4)cc3C2=O)c1` [Example 216] were, in that order, 6.39, 410 nM and 63%.
The corresponding values for `Cc1ccccc1N1CCn2nc(COc3ccccn3)cc2C1=O` [Example 219] are 6.59, 260 nM and 67%.
The like results for `Cc1ccc(N2CCn3nc(COc4ccc(F)cc4)cc3C2=O)cc1` [Example 222] were, in that order, 7.11, 76 nM and 64%.
Regarding `Cc1cccc(N2CCn3nc(COc4ccc(F)cc4)cc3C2=O)c1` [Example 224], the negative logarithm of the EC50 (pEC50) is listed as 7.02, the half-maximal effective concentration (EC50) came to 95 nM and the “Emax (%)” value came to 72%.
For `Cc1cc(N2CCn3nc(COc4ccc(F)cc4)cc3C2=O)ccc1F` [Example 225], the half-maximal effective concentration (EC50) amounted to 61 nM and the maximal response (Emax) was determined as 58%.
Consider `COc1nccnc1N1CCn2nc(COc3ccc(F)cc3)cc2C1=O` [Example 226], for which the pEC50 stood at 6.08, the concentration for a half-maximal effect (EC50) came out at 830 nM and the “Emax (%)” value was 57%.
The like results for `COc1nccc(N2CCn3nc(COc4ccc(F)cc4)cc3C2=O)n1` [Example 227] were, in that order, 6.59, 260 nM and 62%.
In the case of `COc1cc(N2CCn3nc(COc4ccc(F)cc4)cc3C2=O)ccc1F` [Example 228], the half-maximal effective concentration (EC50) was found to be 120 nM and the Emax was determined as 65%.
Take `COc1nc(N2CCn3nc(COc4ccc(F)cc4)cc3C2=O)ncc1C` [Example 230]: the pEC50 is 6.78, the concentration giving a half-maximal response (EC50) worked out at 170 nM and the “Emax (%)” value is reported as 72%.
In the case of `COc1cncc(N2CCn3nc(COc4ccc(F)cc4)cc3C2=O)n1` [Example 231], the pEC50 came to 6.92, the EC50 is 110 nM and the “Emax (%)” value came out at 67%.
The corresponding values for `Cc1cccc(OCc2cc3n(n2)CC(C)N(c2ccc(F)cc2)C3=O)c1` (stereo not drawn) [Example 243] are 7.05, 89 nM and 68%.
The corresponding values for `CC1Cn2nc(COc3cccc(F)c3)cc2C(=O)N1c1ccc(F)cc1` (stereo not drawn) [Example 244] are 7.25, 56 nM and 78%.
Consider `CC1Cn2nc(COc3ccc(F)cc3)cc2C(=O)N1c1ccc(F)cc1` (stereo not drawn) [Example 245], for which the pEC50 is listed as 6.86, the EC50 is 138 nM and the “Emax (%)” value is on record as 74%.
Turning to `C[C@@H]1Cn2nc(COc3cccc(C#N)c3)cc2C(=O)N1c1ccc(F)cc1` [Example 246], the EC50 amounted to 214 nM and the Emax was 69%.
As to `CC1Cn2nc(COc3ccccn3)cc2C(=O)N1c1ccc(F)cc1` (stereo not drawn) [Example 247], the pEC50 amounted to 6.23, the 50% effective concentration (EC50) turned out to be 589 nM and the “Emax (%)” value came to 73%.
For `CC1Cn2nc(COc3ccccc3)cc2C(=O)N1` (stereo not drawn) [Example 255], the pEC50 is less than 5.00, the EC50 was greater than 10000 nM and the “Emax (%)” value amounted to 46%.
In the case of `O=C1c2c(Cl)c(COc3ccccc3)nn2CCN1CC1CC1` [Example 259], the pEC50 is recorded as less than 4.52, the EC50 is greater than 30200 nM and the “Emax (%)” value was 14%.
The corresponding values for `O=C1c2c(Cl)c(COc3ccccc3)nn2CCN1c1ccc(F)cc1` [Example 260] are less than 4.52, greater than 30200 nM and 17%.
`Cc1c(COc2ccccc2)nn2c1C(=O)N(CC1CC1)CC2` [Example 261]: the EC50 is greater than 30200 nM and the Emax turned out to be 23%.
For `Cc1c(COc2ccccc2)nn2c1C(=O)N(c1ccc(F)cc1)CC2` [Example 262], the negative-log EC50 (pEC50) turned out to be 6.05, the EC50 amounted to 891 nM and the “Emax (%)” value amounted to 32%.
Consider `O=C1c2cc(COc3ccccc3)nn2CC(CO)N1c1ccc(F)cc1` (stereo not drawn) [Example 265], for which the negative-log EC50 (pEC50) turned out to be 5.65, the EC50 was 2240 nM and the “Emax (%)” value turned out to be 60%.
Regarding `O=C1c2cc(COc3ccccc3)nn2CC(CF)N1c1ccc(F)cc1` (stereo not drawn) [Example 266], the pEC50 was found to be 6.94, the EC50 was 115 nM and the “Emax (%)” value is given as 65%.
Turning to `COCC1Cn2nc(COc3ccccc3)cc2C(=O)N1c1ccc(F)cc1` (stereo not drawn) [Example 267], the negative-log EC50 (pEC50) is 6.03, the EC50 turned out to be 933 nM and the “Emax (%)” value came to 70%.
Regarding `O=C1c2cc(COc3ccccc3)nn2CC(CO)N1c1ccc(F)cc1` (stereo not drawn) [Example 268], the pEC50 is recorded as less than 5.00, the EC50 is greater than 10000 nM and the “Emax (%)” value came out at 27%.
The corresponding values for `O=C1c2cc(COc3ccccc3)nn2CC(CF)N1c1ccc(F)cc1` (stereo not drawn) [Example 269] are 6.16, 692 nM and 58%.
